Data on ten molecules can be found in DBAASP.

What all share (assay): ≥ marks a high value that may be exact or a test limit, other limits are often not marked, values filed in µg/mL are converted to µM
Assay [1] has as its system Staphylococcus aureus USA 300.
For assay [2], the system named is Escherichia coli ATCC 25922.
The subject of assay [3] is Klebsiella pneumoniae ATCC 13883.
The test system of assay [4] is Pseudomonas aeruginosa PAO1.
A further assay has as its system Escherichia coli JW0013.
For assay [5], the system named is Bacillus subtilis KCTC 3068.
Assay [6] relates to Escherichia coli KCTC 1682.
The test system of assay [7] is Pseudomonas aeruginosa KCTC 1637.
For assay [8], the system named is Salmonella typhimurium KCTC 1926.
The test system of assay [9] is Staphylococcus aureus KCTC 1621.
The test system of assay [10] is Staphylococcus epidermidis KCTC 1917.
For assay [11], the system named is Bacillus subtilis ATCC 6633.
Assay [12] relates to Enterococcus faecalis ATCC 29212.
In a further assay the test system is Escherichia coli UB1005.
For assay [13], the system named is Pseudomonas aeruginosa ATCC 27853.
Assay [14] has as its system Staphylococcus aureus ATCC 25923.
In assay [15] the test system is Staphylococcus epidermidis C621.

Converted amounts (≈) assume the structure as drawn. “And” between values parts separate entries of the source, which are not always exact repeats. Equal values may be shown once. Bounds are passed on as bounds.

One may read the MIC as the lowest concentration found to suppress growth. A low value points to a more susceptible organism. As for `CC[C@H](C)[C@H](NC(=O)[C@H](CCC(N)=O)NC(=O)[C@H](CCC(N)=O)NC(=O)[C@@H](NC(=O)[C@@H](NC(=O)[C@H](CCCN=C(N)N)NC(=O)[C@H](CCCCN)NC(=O)[C@H](Cc1ccccc1)NC(=O)CN)[C@@H](C)CC)C(C)C)C(=O)N[C@@H](CCC(N)=O)C(=O)N[C@@H](CC(=O)O)C(=O)N[C@@H](Cc1ccccc1)C(=O)N[C@@H](CC(C)C)C(=O)N[C@@H](CCCN=C(N)N)C(=O)N[C@@H](CC(N)=O)C(=O)N[C@@H](CC(C)C)C(=O)N[C@H](C(N)=O)C(C)C` [GFKRIVQQIQDFLRNLV], in assay [1], the MIC is 6.2 µM and 12.5 µM.

Turning to `CC(C)C[C@H](NC(=O)[C@H](C)NC(=O)[C@H](CCCCN)NC(=O)CNC(=O)[C@H](CC(C)C)NC(=O)[C@H](C)NC(=O)[C@H](CCCCN)NC(=O)[C@H](CC(C)C)NC(=O)[C@H](C)NC(=O)[C@H](CO)NC(=O)[C@H](CC(C)C)NC(=O)[C@H](CC(C)C)NC(=O)CN)C(N)=O` [GLLSALKALGKAL], the MIC in assay [2] was 25 µM (≈ 31.3 µg/mL); in [3], 25 µM (≈ 31.3 µg/mL); in [4], greater than 25 µM; in assay [1], 25 µM (≈ 31.3 µg/mL).

For the molecule `CC[C@H](C)[C@H](NC(=O)[C@H](Cc1ccc(O)cc1)NC(=O)[C@@H](NC(=O)[C@@H]1CCCN1C(=O)[C@H](CCCCN)NC(=O)[C@H](CC(N)=O)NC(=O)[C@H](CC(N)=O)NC(=O)CN)C(C)C)C(=O)N1CCC[C@H]1C(=O)N[C@@H](CCC(N)=O)C(=O)N1CCC[C@H]1C(=O)N[C@@H](CCCN=C(N)N)C(=O)N1CCC[C@H]1C(=O)N1CCC[C@H]1C(=O)N[C@@H](Cc1cnc[nH]1)C(=O)N1CCC[C@H]1C(=O)N[C@@H](CCCN=C(N)N)C(=O)N[C@@H](CC(C)C)C(=O)O` [GNNKPVYIPQPRPPHPRL], the minimal inhibitory concentration (MIC) in the assay with Escherichia coli JW0013 was 0.3 µM (≈ 0.624 µg/mL).

Regarding `CC(C)C[C@H](NC(=O)[C@H](CCCCN)NC(=O)[C@H](CCCCN)NC(=O)[C@H](CC(C)C)NC(=O)[C@H](CC(C)C)NC(=O)[C@H](CCCCN)NC(=O)[C@H](CCCCN)NC(=O)[C@H](CC(C)C)NC(=O)[C@H](CCCCN)NC(=O)[C@H](CCCCN)NC(=O)[C@H](CCCN=C(N)N)NC(=O)[C@H](CC(C)C)NC(=O)[C@H](CCCN=C(N)N)NC(=O)[C@H](CCCCN)NC(=O)[C@H](CC(C)C)NC(=O)[C@H](CCCN=C(N)N)NC(=O)CN)C(=O)N[C@@H](CO)C(N)=O` [GRLKRLRKKLKKLLKKLS], the minimum inhibitory concentration (MIC) was 4 µM (≈ 8.82 µg/mL) in assay [5]; 8 µM (≈ 17.6 µg/mL) in assay [6]; 4 µM (≈ 8.82 µg/mL) in assay [7]; 2 µM (≈ 4.41 µg/mL) in assay [8]; 4 µM (≈ 8.82 µg/mL) in [9]; 8 µM (≈ 17.6 µg/mL) in [10].

Take `CC(C)C[C@H](NC(=O)[C@H](Cc1ccc(O)cc1)NC(=O)[C@H](Cc1cnc[nH]1)NC(=O)[C@@H](NC(=O)[C@H](CC(C)C)NC(=O)[C@H](C)NC(=O)[C@H](C)NC(=O)[C@H](CCCCN)NC(=O)[C@H](C)NC(=O)[C@@H](NC(=O)[C@H](Cc1cnc[nH]1)NC(=O)[C@H](CCCCN)NC(=O)CNC(=O)[C@@H](NC(=O)[C@H](Cc1cnc[nH]1)NC(=O)[C@H](C)NC(=O)[C@H](C)NC(=O)[C@H](CCCCN)NC(=O)[C@H](CCCCN)NC(=O)[C@H](Cc1ccccc1)NC(=O)[C@H](Cc1ccccc1)NC(=O)[C@H](CO)NC(=O)CNC(=O)[C@H](Cc1c[nH]c2ccccc12)NC(=O)CN)C(C)C)C(C)C)[C@@H](C)O)C(=O)O` [GWGSFFKKAAHVGKHVAKAALTHYL]: the minimal inhibitory concentration (MIC) in [5] stood at 2 µM (≈ 5.45 µg/mL); in assay [6], 2 µM (≈ 5.45 µg/mL); in [7], 2 µM (≈ 5.45 µg/mL); in [8], 2 µM (≈ 5.45 µg/mL); in [9], 1 µM (≈ 2.73 µg/mL); in [10] it was 1 µM (≈ 2.73 µg/mL).

As for `CC[C@H](C)[C@H](N)C(=O)N[C@@H](CC(C)C)C(=O)N[C@@H](CCCCN)C(=O)N[C@@H](CC(C)C)C(=O)N[C@@H](Cc1ccccc1)C(=O)N[C@@H](CCCCN)C(=O)N[C@@H](CCCN=C(N)N)C(=O)N[C@H](C(=O)N[C@H](C(=O)N[C@@H](CCCCN)C(=O)N[C@@H](CCCN=C(N)N)C(=O)N[C@H](C(=O)N[C@@H](CC(C)C)C(=O)N[C@@H](CCCCN)C(=O)N[C@@H](Cc1ccccc1)C(=O)N[C@@H](CC(C)C)C(=O)N[C@@H](CCCN=C(N)N)C(=O)N[C@@H](CCCCN)C(=O)N[C@@H](CC(C)C)C(=O)O)[C@@H](C)CC)C(C)C)[C@@H](C)CC` [ILKLFKRIVKRILKFLRKL], the MIC in [5] was 4 µM (≈ 9.7 µg/mL); in assay [6], 8 µM (≈ 19.4 µg/mL); in assay [7] it was 8 µM (≈ 19.4 µg/mL); in assay [8], 8 µM (≈ 19.4 µg/mL); in [9], 8 µM (≈ 19.4 µg/mL); in [10], 4 µM (≈ 9.7 µg/mL).

In the case of `C[C@H](NC(=O)[C@H](C)NC(=O)[C@H](Cc1c[nH]c2ccccc12)NC(=O)[C@H](C)NC(=O)[C@H](C)NC(=O)[C@H](Cc1c[nH]c2ccccc12)NC(=O)[C@H](C)NC(=O)[C@H](C)NC(=O)[C@H](Cc1c[nH]c2ccccc12)NC(=O)[C@H](C)NC(=O)[C@H](C)NC(=O)[C@H](CCCCN)NC(=O)[C@H](CCCCN)NC(=O)[C@H](CCCCN)NC(=O)[C@H](CCCCN)NC(=O)[C@H](CCCCN)NC(=O)[C@@H](N)CCCCN)C(N)=O` [KKKKKKAAWAAWAAWAA], the minimum inhibitory concentration (MIC) was 4 µM (≈ 7.65 µg/mL) in [11]; greater than 32 µM in assay [12]; 8 µM (≈ 15.3 µg/mL) in [2]; 1 µM (≈ 1.91 µg/mL) in the assay with Escherichia coli UB1005; 8 µM (≈ 15.3 µg/mL) in assay [13]; 32 µM (≈ 61.2 µg/mL) in assay [14]. The molecule further yielded an MIC in assay [15] of 8 µM (≈ 15.3 µg/mL).

Regarding `CC[C@H](C)[C@H](NC(=O)[C@H](CCCCN)NC(=O)[C@@H]1CCCN1C(=O)[C@H](CC(C)C)NC(=O)[C@@H](N)CCCCN)C(=O)N[C@@H](Cc1c[nH]c2ccccc12)C(=O)N[C@@H](Cc1c[nH]c2ccccc12)C(=O)N[C@H](C(=O)N[C@@H](CCCCN)C(=O)N[C@H](C(=O)N1CCC[C@H]1C(=O)N[C@@H](CCCCN)C(N)=O)C(C)C)[C@@H](C)CC` [KLPKIWWIKVPK], the MIC in assay [5] was 4.07 µM (≈ 6.25 µg/mL); in assay [6], 8.14 µM (≈ 12.5 µg/mL); in assay [7], 4.07 µM (≈ 6.25 µg/mL); in [8] it was 4.07 µM (≈ 6.25 µg/mL); in assay [9], 8.14 µM (≈ 12.5 µg/mL); in assay [10], 4.07 µM (≈ 6.25 µg/mL).

As to `CC[C@H](C)[C@H](NC(=O)[C@H](CC(C)C)NC(=O)[C@@H](N)CC(C)C)C(=O)N[C@H](C(=O)N[C@@H](CC(C)C)C(=O)N[C@@H](CCCN=C(N)N)C(=O)N[C@@H](CCCN=C(N)N)C(=O)N[C@@H](CCCN=C(N)N)C(=O)N[C@@H](Cc1c[nH]c2ccccc12)C(=O)N[C@@H](CCCN=C(N)N)C(=O)N[C@@H](CCCCN)C(=O)N[C@@H](CCC(N)=O)C(=O)N[C@@H](C)C(=O)N[C@@H](CCCCN)C(=O)N[C@@H](C)C(=O)N[C@@H](CCCCN)C(=O)N[C@@H](CO)C(=O)N[C@@H](CCCCN)C(N)=O)[C@@H](C)CC` [LLIILRRRWRKQAKAKSK], the minimum inhibitory concentration (MIC) in assay [5] is 4 µM (≈ 9.06 µg/mL); in assay [6], 8 µM (≈ 18.1 µg/mL); in [7], 8 µM (≈ 18.1 µg/mL); in [8], 4 µM (≈ 9.06 µg/mL); in assay [9], 4 µM (≈ 9.06 µg/mL); in [10], 8 µM (≈ 18.1 µg/mL).

For `CC[C@H](C)[C@H](NC(=O)[C@H](CCCN=C(N)N)NC(=O)[C@H](CCCN=C(N)N)NC(=O)[C@@H]1CCCN1C(=O)[C@@H]1CCCN1C(=O)[C@H](CCCN=C(N)N)NC(=O)[C@@H]1CCCN1C(=O)[C@H](CCCN=C(N)N)NC(=O)[C@@H]1CCCN1C(=O)[C@H](CC(C)C)NC(=O)[C@H](Cc1ccc(O)cc1)NC(=O)[C@@H]1CCCN1C(=O)[C@@H]1CCCN1C(=O)[C@H](CCCCN)NC(=O)[C@H](CC(=O)O)NC(=O)[C@@H](N)CCC(N)=O)C(=O)N[C@@H](Cc1ccc(O)cc1)C(=O)N[C@@H](CC(N)=O)C(=O)N[C@@H](CCCN=C(N)N)C(N)=O` [QDKPPYLPRPRPPRRIYNR], in the assay with Escherichia coli JW0013, the MIC was found to be 1.98 µM (≈ 4.8 µg/mL).
